Data on 86 compounds can be found in the COVID Moonshot data (paper PMC7615835).

Several values for one entry are separate records, joined by “and”; a condition that tells them apart may be missing. Equal entries are not always repeated. Some results are limits rather than exact numbers.

As a reminder, the IC50 is the concentration at which inhibition is half-maximal. A low value points to higher potency.

The target of the assay is SARS-CoV-2 Main Protease (SARS-CoV-2) (UniProt P0DTD1).
For `O=C(Cc1cc(Cl)cc(Nc2ncccc2C(F)(F)F)c1)Nc1cncc2ccccc12`, the 50% inhibitory concentration (IC50) stood at 1.94 µM.
In turn, `O=C(Cc1cc(Cl)cc(NCc2ccc(F)c(Cl)c2)c1)Nc1cncc2ccccc12` returned a half-maximal inhibitory concentration (IC50) of 2.49 µM.
The figure for `CCc1ccc([N+](=O)[O-])cc1Nc1cc(Cl)cc(CC(=O)Nc2cncc3ccccc23)c1` is 1.71 µM; for `COc1ccc(-c2cc(COc3cc(Cl)cc(CC(=O)Nc4cnccc4C)c3)on2)cc1` it is 62.7 µM and 81.5 µM; for `C[C@@]1(C(=O)Nc2cncc3c2CCCC3)CNS(=O)(=O)c2ccc(Cl)cc21` (stereo in doubt) it is 3.72 µM.
In turn, `O=C(CC1(C(=O)Nc2cncc3ccccc23)CCOc2ccc(Cl)cc21)N1CCCCC1c1nnc[nH]1` (stereo unspecified) returned a half-inhibitory concentration (IC50) of 0.437 µM.
The same measure for `O=C(Cc1cccc(Cl)c1)Nc1cncc2ccc(OCC(F)(F)F)cc12`: 1.09 µM; for `CS(=O)(=O)c1ccc2c(NC(=O)C3CCOc4ccc(Cl)cc43)cncc2c1` (stereo unspecified): 0.427 µM; for `O=C(NCCc1cccc(F)c1)C(c1cccnc1)N(C(=O)c1ccco1)C1CCCC(c2ccc(F)c(F)c2)C1` (stereo unspecified): over 99.5 µM.
The figure for `O=c1[nH]c(Cc2cccc(S(F)(F)(F)(F)F)c2)nc2cnccc12` is over 99.5 µM; for `CC(C)(C#N)CS(=O)(=O)N1Cc2ccc(Cl)cc2[C@H](C(=O)Nc2cncc3ccccc23)C1` (stereo in doubt) it is 0.055 µM and 0.0969 µM and 0.141 µM; for `CN1CCN(c2ccc(F)cc2C(=O)N2CCC(C3CCNC3)CC2)CC1` (stereo unspecified) it is over 99.5 µM.
The same measure for `CC(NC(=O)COc1ccc(C(N)=O)cc1)(C(=O)Nc1cncc2ccccc12)c1ccc(Cl)c(Cl)c1` (stereo unspecified): 10.5 µM and 14.3 µM.
`O=C(Cc1cc(Cl)cc(NCC(c2ccccc2)c2ccccc2)c1)Nc1cncc2ccccc12` had a concentration for half-maximal inhibition (IC50) of 5.82 µM.
The figure for `O=C(Cc1cc(Cl)cc(-c2nnc[nH]2)c1)Nc1cncc2ccccc12` is 5.3 µM; for `COc1ccc(N(C(=O)c2ccco2)C(C(=O)NCCc2cccc(F)c2)c2cccnc2)cc1OCCO` (stereo unspecified) it is over 99.5 µM; for `O=C1NCC(C(=O)Nc2cncc3ccccc23)c2cc(F)cc(F)c21` (stereo unspecified) it is 1.73 µM.
The same measure for `Cc1ccncc1NC(=O)Cc1cccc(-c2cn[nH]c2)c1`: 53.2 µM.
The same measure for `N#CCNC(=O)CN1Cc2ccc(Cl)cc2C2(CCN(c3cncc4ccccc34)C2=O)C1` (stereo unspecified): 0.263 µM.
`COc1ncc(Br)cc1Nc1cc(Cl)cc(CC(=O)Nc2cncc3ccccc23)c1` gave a 50% inhibitory concentration (IC50) of 0.681 µM.
The figure for `CC(C)(C)c1ccc(N(C(=O)c2ccco2)C(C(=O)NCCc2cccc(F)c2)c2cncc3ccccc23)cc1` (stereo unspecified) is 0.403 µM.
The figure for `O=C(NCCc1cccc(F)c1)C(c1cccnc1)N(C(=O)c1cocn1)c1ccc2c(c1)CCOC2` (stereo unspecified) is over 99.5 µM; for `O=C1CCc2cc(C(=O)N3CCC(C4CCNC4)CC3)ccc2N1` (stereo unspecified) it is over 99.5 µM; for `O=C(Cc1cccc(Cl)c1F)Nc1cncc2ccccc12` it is 23.6 µM.
The same measure for `O=C(Cc1cccc(Cl)c1)Nc1cnccc1C(F)(F)F`: 18.2 µM and > 9.95 µM; for `O=C(NC(c1ccccc1)c1ccccc1)[C@H]1CN(C(=O)CCl)CCN1S(=O)(=O)c1ccsc1` (stereo in doubt): 0.832 µM.
As for `N#CCS(=O)(=O)N1Cc2ccc(Cl)cc2C(C(=O)Nc2cncc3ccccc23)C1` (stereo unspecified), the IC50 amounted to 0.33 µM.
The same measure for `Cn1c(=O)[nH]c2cncc(NC(=O)C3CCOc4ccc(Cl)cc43)c21` (stereo unspecified): 20.7 µM; for `NCc1cn(CC(=O)N(Cc2ccsc2)c2ccc(-c3ccccc3)cc2)nn1`: over 99.5 µM.
The same measure for `Cc1cn2nnc(C(=O)N(c3ccc(C(C)(C)C)cc3)C(C(=O)NCCc3cccc(F)c3)c3cccnc3)c2c(=O)[nH]1` (stereo unspecified): over 99.5 µM; for `Cc1cc(C(F)(F)F)nc2n[nH]c(NC(=O)Cc3cccc(Cl)c3)c12`: over 99.5 µM.
In turn, `C=CC(=O)N(c1ccc(C(C)(C)C)cc1)C(C(=O)NCCOC)c1cccnc1` (stereo unspecified) showed an IC50 of 55.8 µM.
The same measure for `NC(=O)c1ccc(Cl)c(Nc2cc(Cl)cc(CC(=O)Nc3cncc4ccccc34)c2)c1`: 1.79 µM; for `O=C(Cc1cc(Cl)cc(OC2CC(=O)N2)c1)Nc1cncc2ccccc12` (stereo unspecified): 0.274 µM and 0.15 µM; for `N#CC1(CS(=O)(=O)N2Cc3ccc(Cl)cc3[C@H](C(=O)Nc3cncc4ccccc34)C2)CCS(=O)(=O)CC1` (stereo in doubt): < 0.05 µM and 0.0814 µM and 0.0524 µM.
The figure for `CC1(CS(=O)(=O)N2Cc3ccc(Cl)cc3[C@H](C(=O)Nc3cncc4ccccc34)C2)CC1` (stereo in doubt) is < 0.05 µM and 0.0846 µM and 0.0459 µM; for `O=C(Nc1nn2cnnc2s1)c1csc(-c2ccccc2)n1` it is over 99.5 µM; for `Cc1csc2ncc(C(=O)Nc3cccc4ncccc34)c(=O)n12` it is over 99.5 µM.
As to `N#CC1(CS(=O)(=O)N2Cc3ccc(Cl)cc3C3(CCN(c4cncc5c4CCCC5)C3=O)C2)CC1` (stereo unspecified), the half-inhibitory concentration (IC50) turned out to be 0.515 µM.
The same measure for `COC(=O)C1CC1C(=O)N1CCC(c2c[nH]c3ncccc23)CC1` (stereo unspecified): over 99.5 µM; for `COc1cc(OC)cc(-c2nc(-c3c(C)nc4sccn34)no2)c1`: over 99.5 µM; for `CC1C(=O)NCCN1C(=O)CCCc1c[nH]c2ccccc12` (stereo unspecified): over 99.5 µM.
The figure for `O=C(Nc1cncc2ccccc12)C1CCNc2cc(Cl)c(Cl)cc21` (stereo unspecified) is 0.154 µM; for `Cc1ccncc1NC(=O)Cc1cc(Cl)cc(NCC(C)(C)C#N)c1` it is 36.5 µM.
The figure for `COc1ccccc1N1CCN(C(=O)c2cc(=O)[nH]c3ccccc23)CC1` is 32.8 µM; for `COCc1cc(Cl)cc(CN2CCN(C(=O)CCl)CC2)c1` it is 4.77 µM; for `N#CC1(CS(=O)(=O)N2Cc3ccc(Cl)cc3C3(CCN(c4cncc5cccc(Cl)c45)C3=O)C2)CC1` (stereo unspecified) it is 7.79 µM.
On to `Cc1cn2nc(NCc3ccc4ncccc4c3)sc2n1`, for which the 50% inhibitory concentration (IC50) is over 99.5 µM.
Take `Cc1cc(NC(=O)Cc2cncnc2)cc(OC2CC(=O)N2)c1` (stereo unspecified): the IC50 is 34.6 µM and 34 µM.
The figure for `CN(C)c1ccc(N(Cc2cccc(Cl)c2)C(=O)Cn2nnc3ccccc32)cc1` is 0.497 µM.
The figure for `COc1cnc(C#N)nc1` is over 99.5 µM; for `O=S(=O)(Cc1ccccc1F)c1oc(-c2ccc(F)cc2)nc1S(=O)(=O)c1ccccc1` it is 0.397 µM; for `Cc1ccncc1NC(=O)Cc1cc(Cl)cc(CNS(C)(=O)=O)c1` it is 16.6 µM.
The figure for `O=C(Cc1cc(Cl)cc(NCc2cc(Cl)cc(Cl)c2)c1)Nc1cncc2ccccc12` is 1.72 µM; for `Cc1ccc(Nc2cc(Cl)cc(CC(=O)Nc3cncc4ccccc34)c2)c(Br)c1` it is 1.9 µM; for `COc1cc(Cl)cc2c1OCC[C@H]2C(=O)Nc1cncc2ccccc12` (stereo in doubt) it is over 99.5 µM.
In turn, `C=CC(=O)N(c1ccc(C(C)(C)C)cc1)C(C(=O)NCCc1cccc(F)c1)c1cncc(Cl)c1` (stereo unspecified) came in with an IC50 of 11.5 µM. This counts as double-digit micromolar.
The same measure for `Cc1ccncc1NC(=O)Cc1cc(C#N)cc(OC2CC(=O)N2)c1` (stereo unspecified): 11.6 µM; for `O=C(Cc1cc(Cl)cc2c1OCC2)Nc1cncc2ccccc12`: 1.13 µM and 1.87 µM; for `CC(C)(C)c1ccc(N(C(=O)c2ccc(O)c(=O)o2)C(C(=O)NCCc2cccc(F)c2)c2cccnc2)cc1` (stereo unspecified): 76.5 µM.
The same measure for `O=C(Nc1cncc2cc(CN3CC4(CNC4)C3)ccc12)C1CCOc2ccc(Cl)cc21` (stereo unspecified): 1.44 µM; for `Cc1ccccc1C(C)N(C(=O)c1cnc[nH]1)C(C(=O)NCCc1cccc(F)c1)c1cccnc1` (stereo unspecified): over 99 µM.
The figure for `O=C(Cc1cc(Cl)cc(NC23CC4CC(CC(O)(C4)C2)C3)c1)Nc1cncc2ccccc12` is 2.87 µM; for `Cn1nncc1CC(=O)NC(c1ccccc1)c1nc2ccccc2n1C` (stereo unspecified) it is 35.7 µM.
Compound `CC(=O)N1CCc2ccc(Cl)cc2C1C(=O)Nc1cncc2ccccc12` (stereo unspecified) yielded an IC50 of 2.85 µM. This IC50 is about 13-fold lower than that of the compound before.
The figure for `CC(C)CS(=O)(=O)N1Cc2ccc(Cl)cc2C(C(=O)Nc2cncc3ccc(C(C)(C)O)cc23)C1` (stereo unspecified) is 1.22 µM; for `O=C(Cc1cccc(Cl)c1)NC1=NC(=O)c2ccccc21` it is over 99.5 µM; for `O=C(c1cc(=O)[nH]c2ccccc12)N1CCN(c2ccccc2F)CC1` it is 24 µM.
As to `CNC(=O)C(C)(C)N1CC(C(=O)Nc2cncc3ccccc23)c2cc(Cl)ccc2C1=O` (stereo unspecified), the half-inhibitory concentration (IC50) worked out at 1.02 µM.
The compound `COC1(C(=O)Nc2cncc3cc(S(=O)(=O)N(C)C)ccc23)CCOc2ccc(Cl)cc21` (stereo unspecified) came in with an IC50 of 0.458 µM.
The same measure for `O=C(NCCc1cccc(F)c1)C(c1cccnc1)N(C(=O)c1ccco1)c1cccc(CSC2CCOCC2)c1` (stereo unspecified): over 99.5 µM; for `O=C(NC(c1ccccc1)c1ccccc1)[C@@H]1CN(C(=O)CCl)CCN1S(=O)(=O)c1ccsc1` (stereo in doubt): 0.635 µM; for `CC1(CS(=O)(=O)N2Cc3ccc(Cl)cc3C(C(=O)Nc3cncc4cc(S(C)(=O)=O)ccc34)C2)CS(=O)(=O)C1` (stereo unspecified): 0.0836 µM and 0.147 µM.
The figure for `CC(C)(C)c1ccc(N(C(=O)c2c[nH]c(=O)[nH]2)C(C(=O)NCCc2cccc(F)c2)c2cccnc2)cc1` (stereo unspecified) is 15.9 µM.
The figure for `Cc1cc(C)c(S(=O)(=O)N2CCCC2C(=O)Nc2ccc3[nH]c(=O)sc3c2)c(C)c1` (stereo unspecified) is over 99.5 µM; for `CNC(=O)CN1C[C@@]2(CC(=O)N(c3cncc4ccccc34)C2=O)c2cc(Cl)ccc2C1=O` (stereo in doubt) it is 0.123 µM.
Regarding `CN1CC(C)(C(=O)Nc2cncc3cc(S(C)(=O)=O)ccc23)c2cc(Cl)ccc2S1(=O)=O` (stereo unspecified), the 50% inhibitory concentration (IC50) came out at 0.523 µM. Compared with the last compound, the IC50 is about 4.3-fold higher.
The figure for `O=C1O[C@@]2(CCOc3ccc(Cl)cc32)C(=O)N1c1cncc2ccccc12` (stereo in doubt) is over 99.5 µM.
The figure for `Cc1cc(NC(=O)C2CCOc3ccc(Cl)cc32)ncc1N` (stereo unspecified) is over 99.5 µM.
Compound `CS(=O)(=O)c1ccc(N2CCNCC2)cc1` came in with a 50% inhibitory concentration (IC50) of over 99.5 µM.
The same measure for `Cc1nc2scc(C)n2c1CN1CCN(Cc2ccsc2)CC1`: over 99.5 µM; for `CC(C)S(=O)(=O)c1ccc(N(C(=O)c2cocn2)C(C(=O)NCCc2cccc(F)c2)c2cccnc2)cc1` (stereo unspecified): 66.1 µM.
In turn, `O=C(Cc1cc(Cl)cc(Nc2ccc([N+](=O)[O-])cc2C(F)(F)F)c1)Nc1cncc2ccccc12` returned a 50% inhibitory concentration (IC50) of 2.01 µM.
For the compound `CC(C)(C)c1ccc(N(C(=O)c2cn[nH]c2)C(C(=O)NCCc2cccc(F)c2)c2cccnc2)cc1` (stereo unspecified), the IC50 was 5.83 µM. Compared with the last compound, the IC50 is about 2.9-fold higher.
Regarding `CS(=O)(=O)c1ccc2cncc(NC(=O)C3CNC(=O)c4c(F)cc(F)cc43)c2c1` (stereo unspecified), the IC50 stood at 3.6 µM.
The same measure for `O=C(Cc1cc(Cl)cc(NCc2ccc3c(c2)OCO3)c1)Nc1cncc2ccccc12`: 2.52 µM.
